# Values of other authors, collected in patent publication US20050080252A1, “Process for preparing antiviral nucleoside derivatives” (Roche Palo Alto LLC, priority 2003, published 2005).
# Columns and labels:
# [1] = unlike ribavirin
smiles,measurement,setting,value
"NC(=O)c1ncn([C@H]2O[C@@H](CO)[C@H](O)[C@@H]2O)n1 [levovirin, 1-(3S,4R-dihydroxy-5S-hydroxymethyl-tetrahydro-furan-2S-yl)-1H-[1,2,4]triazole-3 carboxylic acid amide]",direct antiviral activity,[1],does not have direct detectable antiviral activity
same,immune response / antiviral Th1 cytokine expression,Th1 cytokine expression,stimulates immune responses by enhancing antiviral Th1 cytokine expression
